Reference: patent US20250320362A1, “Suspensions and Solutions of Dyes For Colored Coatings” (Northeastern University, priority 2022, published 2025)

Assays:
Type in all cases: physicochemical
[1] = pH-dependent xanthommatin solubility in water; conditions: solid pigment suspended in acidic to alkaline water (pH 2-12), agitation, then centrifugation
Procedure: Evaluation of pH-dependent xanthommatin solubility: Fractions of solid xanthommatin corresponding to 1 mg of starting material were dispersed in 1 mL of filtered water adjusted to pH 2.01, 4.00, 6.00, 7.00, 8.01, 10.01, or 12.00. Samples were mixed by pipetting, centrifuged at 15,000 g for 5 minutes, and imaged with a camera to record the mass of undissolved material (FIG. 1C, top panel). Each sample was then diluted to 1.5 mL with water adjusted to its respective pH, mixed by vortexing, sonicated for 5 minutes, centrifuged at 15,000 g for 5 minutes, and imaged again (FIG. 1C, bottom panel).

[2] = xanthommatin solubility in water-based polyurethane; conditions: pigment added as suspension in water or solution in MES buffer; Rust-Oleum 6711; judged by absence of solid after centrifugation
Procedure: Evaluation of xanthommatin solubility in water-based polyurethane: Two quantities of solid xanthommatin, corresponding to either 0.2 or 1.6 mg of xanthommatin, were dissolved or dispersed in 0.3 mL of MES buffer (0.1 M, pH 5.5) or deionized water, and added to 0.27 g fractions of water-based polyurethane paint (Rust-Oleum 6711). Pigment-free samples were prepared as controls. After mixing, these samples were centrifuged (15,000 g, 5 minutes), and imaged using a camera (FIG. 1D).

[3] = solubility of xanthommatin in carrier liquids (water, MES buffer); conditions: oxidized xanthommatin

solubility in water, acidic conditions ([1]; acidic conditions): sparingly soluble/insoluble | solubility in water, basic conditions ([1]; basic conditions): most soluble | solubility in water-based polyurethane paint base [2]: fully soluble | solubility in MES buffer (carrier liquid) ([3]; MES buffer): fully soluble | solubility in water (carrier liquid) ([3]; water): only slightly soluble
SMILES: NC(CC(=O)c1cccc2oc3cc(=O)c4[nH]c(C(=O)O)cc(=O)c4c-3nc12)C(=O)O (centres unmarked) [xanthommatin, 11-(3-amino-3-carboxypropanoyl)-1,5-dioxo-4H-pyrido[3,2-a]phenoxazine-3-carboxylic acid]
